Columns and labels:
[1] = target: T1, rat δ (C6-DOR) opioid receptor (Rattus norvegicus, UniProt P33533); assay: Radioligand binding assay, [3H]diprenorphine displacement, DOR; settings: displacement of 0.2 nM [3H]diprenorphine, C6-DOR membranes; mean ± standard error
T1 construct: expressed in transfected cells
Summary of the method: (§1)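 Competitive displacement of 0.2 nM [3H]diprenorphine is measured on 20 μg membrane protein from C6-MOR, C6-DOR or CHO-KOR cells in 50 mM Tris-HCl, pH 7.4. Binding equilibrates for 1 h at room temperature; naloxone (10 μM) defines nonspecific binding.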

[2] = target: T1, rat δ (C6-DOR) opioid receptor; assay: Stimulation of [35S]GTPγS binding, DOR; format: biochemical; settings: for EC50 (nm) DOR / EC50: [35S]GTPγS binding, C6-DOR membranes, mean ± standard error; for % stimulation DOR / Emax: [35S]GTPγS maximal stimulation compared with 10 μM standard DPDPE
Summary of the method: (§2)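 Membranes (10–20 μg protein) from C6 glioma cells expressing rat MOR or DOR, or CHO cells expressing human KOR, were incubated 1 h at room temperature with 0.1 nM [35S]GTPγS, 30 μM GDP and test peptides in Tris buffer pH 7.4. Bound label was filtered and counted; maximal stimulation, by nonlinear regression, was relative to 10 μM DAMGO (MOR), DPDPE (DOR) or U69,593 (KOR).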

[3] = target: T2, rat μ (C6-MOR) opioid receptor (Rattus norvegicus, UniProt P33535); assay: Stimulation of [35S]GTPγS binding, MOR; format: biochemical; settings: for EC50: [35S]GTPγS binding, C6-MOR membranes, mean ± standard error; for Emax: [35S]GTPγS maximal stimulation compared with 10 μM standard DAMGO
T2 construct: expressed in transfected cells
Summary of the method: as §2

[4] = target: T3, human κ (CHO-KOR) opioid receptor (Homo sapiens, UniProt P41145); assay: Radioligand binding assay, [3H]diprenorphine displacement, KOR; settings: displacement of 0.2 nM [3H]diprenorphine, CHO-KOR membranes; mean ± standard error
T3 construct: expressed in transfected cells
Summary of the method: as §1

[5] = target: T3, human κ (CHO-KOR) opioid receptor; assay: Stimulation of [35S]GTPγS binding, KOR; format: biochemical; settings: for EC50 (nm) KOR / EC50: [35S]GTPγS binding, CHO-KOR membranes, mean ± standard error; for % stimulation KOR / Emax: [35S]GTPγS maximal stimulation compared with 10 μM standard U-69,593
Summary of the method: as §2

[6] = target: T2, rat μ (C6-MOR) opioid receptor; assay: Radioligand binding assay, [3H]diprenorphine displacement, MOR; settings: displacement of 0.2 nM [3H]diprenorphine, C6-MOR membranes; mean ± standard error
Summary of the method: as §1

T3 sequence (P41145 whole entry): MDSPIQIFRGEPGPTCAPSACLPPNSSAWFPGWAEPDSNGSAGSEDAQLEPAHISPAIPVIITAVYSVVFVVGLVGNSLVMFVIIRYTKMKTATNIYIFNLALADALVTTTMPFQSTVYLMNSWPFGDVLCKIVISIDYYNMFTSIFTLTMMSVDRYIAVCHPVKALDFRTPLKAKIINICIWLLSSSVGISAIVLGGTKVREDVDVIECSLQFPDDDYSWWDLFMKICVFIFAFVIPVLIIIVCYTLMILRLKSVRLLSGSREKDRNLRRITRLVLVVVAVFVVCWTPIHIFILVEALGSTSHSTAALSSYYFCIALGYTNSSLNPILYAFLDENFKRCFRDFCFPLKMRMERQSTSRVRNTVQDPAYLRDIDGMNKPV
T2 sequence (P33535 whole entry): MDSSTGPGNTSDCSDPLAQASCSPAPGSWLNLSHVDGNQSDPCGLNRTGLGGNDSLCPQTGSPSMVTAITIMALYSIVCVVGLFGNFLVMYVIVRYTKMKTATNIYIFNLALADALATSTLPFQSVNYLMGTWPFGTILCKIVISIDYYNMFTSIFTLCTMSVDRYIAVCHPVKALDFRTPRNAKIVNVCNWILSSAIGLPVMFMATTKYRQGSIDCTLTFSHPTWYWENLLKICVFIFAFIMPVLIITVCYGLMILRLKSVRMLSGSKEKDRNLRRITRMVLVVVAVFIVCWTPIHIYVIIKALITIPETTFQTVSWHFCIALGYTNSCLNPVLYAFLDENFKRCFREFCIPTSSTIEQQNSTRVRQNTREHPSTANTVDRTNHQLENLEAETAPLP
T1 sequence (P33533 whole entry): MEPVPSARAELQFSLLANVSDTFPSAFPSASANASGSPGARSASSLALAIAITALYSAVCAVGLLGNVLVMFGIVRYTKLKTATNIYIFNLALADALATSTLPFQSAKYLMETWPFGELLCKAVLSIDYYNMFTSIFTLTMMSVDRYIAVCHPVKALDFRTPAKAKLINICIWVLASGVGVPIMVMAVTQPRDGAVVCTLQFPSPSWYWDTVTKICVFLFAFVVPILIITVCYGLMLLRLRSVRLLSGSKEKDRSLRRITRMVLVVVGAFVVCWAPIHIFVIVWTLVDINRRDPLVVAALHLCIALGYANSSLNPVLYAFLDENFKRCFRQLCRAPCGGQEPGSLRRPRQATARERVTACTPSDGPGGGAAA

| SMILES | Ki [1] [nM] | EC50 (nm) DOR [2] | % stimulation DOR [2] | EC50 [3] [nM] | Emax [3] [%] | Ki [4] [nM] | EC50 (nm) KOR [5] | % stimulation KOR [5] | Ki [6] [nM] | EC50 [2] [nM] | Emax [2] [%] | EC50 [5] [nM] | Emax [5] [%] |
| --- | --- | --- | --- | --- | --- | --- | --- | --- | --- | --- | --- | --- | --- |
| Cc1ccc2c(c1)CN(Cc1ccc3c(c1)[C@H](NC(=O)[C@@H](N)Cc1c(C)cc(O)cc1C)CCN3)CC2 [Compound 1049] | 23.3 ± 2.51 | dns | dns | 0.35 ± 0.11 | 111 ± 4.65 | 11.9 ± 6.13 | dns | dns | 0.17 ± 0.06 |  |  |  |  |
| COc1cc(Cc2ccccc2)cc2c1N(C(C)=O)CC[C@H]2NC(=O)[C@@H](N)Cc1c(C)cc(O)cc1C [Compound 1076] | 2.16 ± 1.15 |  |  | 0.78 ± 0.2 | 95.8 ± 10.2 | 44.8 ± 16.9 |  |  | 0.14 ± 0.01 | 4.62 ± 1.9 | 44.6 ± 3.75 | 1480 ± 639 | 16.1 ± 5.54 |
| Cc1cc(O)cc(C)c1C[C@H](N)C(=O)N[C@H]1CCOc2ccc(Cc3ccccc3)cc21 [Compound 1112] | 260 ± 62.9 |  |  | 654 ± 361 | 7.18 ± 2.41 | 354 ± 37.1 |  |  | 6.07 ± 2.41 |  | 2.48 ± 3.08 |  | -0.061 ± 0.45 |
| CC(=O)N1CC[C@@H](NC(=O)[C@@H](N)Cc2c(C)cc(O)cc2C)c2cc(Oc3ccc(Cl)cc3)ccc21 [Compound 1026] | 3.1 ± 0.69 |  |  | 7.01 ± 1.49 | 61.2 ± 6.93 | 45.5 ± 6.67 |  |  | 0.1 ± 0.03 |  | 0 | 1820 | 47.3 |
| CC(=O)N1CC[C@@H](NC(=O)[C@@H](N)Cc2c(C)cc(O)cc2C)c2cc(Oc3cccc(Cl)c3)ccc21 [Compound 1027] | 5.03 ± 0.29 |  |  | 8.07 ± 4.81 | 72.2 ± 2.41 | 21 |  |  | 0.05 ± 0.01 | 431 ± 216 | 7.42 ± 5.57 | 791 | 55.1 |
| Cc1ccc(Cc2ccc3c(c2)[C@H](NC(=O)[C@@H](N)Cc2c(C)cc(O)cc2C)CCN3)cc1 [Compound 1007] | 6.1 |  |  |  | 99 | 18 |  |  | 0.11 |  | 13 |  | 14 |
| Cc1cc(O)cc(C)c1C[C@H](N)C(=O)N[C@@H]1CCNc2ccc(CN3CCc4ccc(F)cc4C3)cc21 [Compound 1054] | 16.7 ± 2.47 |  | dns | 0.5 ± 0.05 | 105 ± 4.56 | 9.63 ± 0.4 |  | dns | 0.17 ± 0.02 | 25.9 ± 16.9 |  | 108 |  |
| Cc1cc(O)cc(C)c1C[C@H](N)C(=O)N[C@@H]1CCNc2ccc(Cc3ccc4c(c3)OCCO4)cc21 [Compound 1050] | 5.48 ± 0.81 | dns | dns | 5.54 ± 0.12 | 87.5 ± 12 | 116 ± 65.1 | dns | dns | 0.35 ± 0.11 |  |  |  |  |
| Cc1cc(O)cc(C)c1C[C@H](N)C(=O)N[C@@H]1CCNc2c(CN3CCN(C(=O)[C@@H](N)Cc4c(C)cc(O)cc4C)CC3)cc(Cc3ccccc3)cc21 [Compound 1096] | 2.56 ± 0.53 | dns | dns | 5.89 ± 0.68 | 86 ± 8 | 7.17 ± 2.38 | dns | dns | 0.31 ± 0.16 |  |  |  |  |
| Cc1cc(O)cc(C)c1C[C@H](N)C(=O)N[C@@H]1CCNc2ccc(Cc3cc4ccccc4o3)cc21 [Compound 1065] | 4.76 ± 1.9 | dns |  | 1.14 ± 0.49 | 97.9 ± 1.43 | 41.4 ± 22.4 | dns | dns | 0.11 ± 0.03 |  | 13.9 |  |  |
| Cc1cc(O)cc(C)c1C[C@H](N)C(=O)N(C1CC1)C1CCNc2ccc(Cc3ccccc3)cc21 (stereo partly shown) [Compound 1016] | 52.5 ± 17.8 |  |  | 28.4 ± 4.4 | 40.1 ± 10.7 | 28.6 ± 7.24 |  |  | 5.33 ± 2.43 |  | 0.82 ± 3.63 |  | -0.01 ± 0.01 |
| Cc1cc(O)cc(C)c1C[C@H](N)C(=O)NC1CCNc2ccc(Oc3ccccc3)cc21 (stereo partly shown) [Compound 1017] | 13.9 ± 6.7 |  |  | 14.9 ± 5.37 | 68 ± 2.33 | 65.5 ± 9.66 |  |  | 0.42 ± 0.04 | 108 ± 53.3 | 9.8 ± 5.49 | 957 | 23.6 |
| CCCCCc1ccc2c(c1)[C@H](NC(=O)[C@@H](N)Cc1c(C)cc(O)cc1C)CCN2 [Compound 1013] | 8.81 ± 2.89 |  |  | 12 ± 5.77 | 20.2 ± 7.11 | 22.5 ± 10.3 |  |  | 0.22 ± 0.09 |  | 0 | 543 ± 148 | 23.7 ± 0.83 |
| Cc1cc(O)cc(C)c1C[C@H](N)C(=O)N[C@@H]1CCCc2ccccc21 [Compound 1113] | 640 ± 218 |  |  |  | 3.44 ± 2.09 | 2060 ± 582 |  |  | 25.6 ± 10.9 |  | -0.76 ± 0.62 |  | -1.05 |
| Cc1cc(O)cc(C)c1C[C@H](N)C(=O)NC1CCc2ccc(Cc3ccccc3)cc21 (stereo partly shown) [Compound 1114] | 29.9 ± 10.1 |  |  | 18.3 ± 8.14 | 42.6 ± 8.65 | 143 ± 45.4 |  |  | 0.55 ± 0.09 |  | 3.07 ± 1.82 | 1600 | 3.7 ± 4.06 |
| Cc1cc(O)cc(C)c1C[C@H](N)C(=O)N[C@@H]1CCNc2ccc(Sc3ccccc3)cc21 [Compound 1053] | 5.08 ± 0.52 | dns | dns | 4.67 ± 1.44 | 51.6 ± 6.43 | 10.8 ± 6.24 |  |  | 0.45 ± 0.11 |  |  | 1120 | 22.4 |
| Cc1cc(O)cc(C)c1C[C@H](N)C(=O)N[C@@H]1CCSc2ccc(Cc3ccccc3)cc21 [Compound 1123] | 4.79 ± 1.11 | dns | dns | 1.92 ± 0.54 | 79.9 ± 7.51 | 48.4 ± 23.1 |  |  | 0.15 ± 0.04 |  |  | 337 ± 205 | 10.3 ± 5.17 |
| Cc1cc(O)cc(C)c1C[C@H](N)C(=O)N[C@@H]1CCNc2ccc(S(=O)(=O)c3ccccc3)cc21 [Compound 1052] | 2.92 ± 0.41 | dns | dns | 12.9 ± 1.35 | 68.9 ± 10.3 | 26 ± 7.12 |  |  | 3.01 ± 1.87 |  |  | 1310 | 38.5 |
| Cc1cc(O)cc(C)c1C[C@H](N)C(=O)N[C@@H]1CCCc2ccc(-c3ccc4ccccc4c3)cc21 [Compound 1116] | 6.03 ± 0.2 |  |  |  | -1.1 ± 1.61 | 315.9 ± 0.91 |  |  | 0.24 ± 0.12 |  | 1.75 ± 1.44 | 237 | 5.57 ± 8.53 |
| CC(=O)N1CC[C@@H](NC(=O)[C@@H](N)Cc2c(C)cc(O)cc2C)c2cc(CN3CCc4ccc(F)cc4C3)ccc21 [Compound 1062] | 0.77 ± 0.23 | dns | dns | 23.7 ± 26.7 | 99.6 ± 1.92 | 16.2 ± 7.94 |  |  | 0.05 ± 0.01 |  |  | 234 ± 70.1 | 34.2 ± 8.24 |
| COc1cc(Cc2ccccc2)cc2c1NCC[C@H]2NC(=O)[C@@H](N)Cc1c(C)cc(O)cc1C [Compound 1063] | 3.08 ± 1 |  |  | 2.5 ± 0.45 | 84.1 ± 0.96 | 29.9 ± 10.4 | dns | dns | 0.24 ± 0.11 | 63.3 ± 12.2 | 50.8 ± 9.61 |  |  |
| Cc1ccc(Cc2ccc3c(c2)[C@@H](NC(=O)[C@@H](N)Cc2c(C)cc(O)cc2C)CCN3)cc1 [Compound 1008] | 582 |  |  |  | 55 | 50 |  |  | 11 |  | 3 |  | 0 |
| Cc1cc(O)cc(C)c1C[C@H](N)C(=O)N[C@H]1CCN(C)c2ccc(Cc3ccccc3)cc21 [Compound 1005] | 138 ± 29.8 |  |  | 214 ± 41 | 72.2 ± 3.6 | 632 ± 78 |  |  | 71.4 ± 18.4 |  | 0 |  | 1.6 ± 1.4 |
| Cc1cc(O)cc(C)c1C[C@H](N)C(=O)N[C@@H]1CCN(C)c2ccc(Cc3ccccc3)cc21 [Compound 1004] | 7.3 ± 3.5 |  |  | 4 ± 0.9 | 102 ± 4.6 | 27.8 ± 0.7 |  |  | 0.555 ± 0.242 | 486 | 4.3 ± 4.3 | 2220 ± 1020 | 44 ± 8.2 |
| CCCCCCc1ccc2c(c1)[C@H](NC(=O)[C@@H](N)Cc1c(C)cc(O)cc1C)CCN2 [Compound 1011] | 5.89 ± 0.76 |  |  | 2.41 ± 0.81 | 35.9 ± 5.28 | 15.1 ± 5.7 |  |  | 0.13 ± 0.02 | 1.7 | 2.5 ± 2.5 | 773 ± 26.5 | 34.6 ± 1.11 |
| Cc1cc(O)cc(C)c1C[C@H](N)C(=O)N[C@@H]1CCS(=O)(=O)c2ccc(Cc3ccccc3)cc21 [Compound 1124] | 2.34 ± 1.42 |  |  | 0.72 ± 0.11 | 94.5 ± 3.04 | 27.2 ± 5.99 |  |  | 0.06 ± 0.01 | 126 ± 72.5 | 45.2 ± 5.62 | 721 ± 317 | 35.8 ± 2.15 |
